Literature values in EP3231454B1, “BONE CEMENT COMPRISING MICROENCAPSULATED ANTIMICROBIAL” (UNIVERSIDAD PONTIFICIA COMILLAS, priority 2016, dated 2017).

Conditions: addition of 1 g of vancomycin to bone cement

**Q.** Which “reduction in bending resistance” value does the source give for CN[C@H](CC(C)C)C(=O)N[C@H]1C(=O)N[C@@H](CC(N)=O)C(=O)N[C@H]2C(=O)N[C@H]3C(=O)N[C@H](C(=O)N[C@H](C(=O)O)c4cc(O)cc(O)c4-c4cc3ccc4O)[C@H](O)c3ccc(c(Cl)c3)Oc3cc2cc(c3O[C@@H]2O[C@H](CO)[C@@H](O)[C@H](O)[C@H]2O[C@H]2C[C@](C)(N)[C@H](O)[C@H](C)O2)Oc2ccc(cc2Cl)[C@H]1O [vancomycin] here?
**A.** more than 20%
